# Test results as given in patent US6699883B1, “Pyrroloimidazole derivatives and their use as medicaments” (Morphochem AG, priority 1999, dated 2004).
# Tests used:
# Assay type in all cases: cell-based
# [1] = system: Candida albicans; test: Inhibition test (microdilution assay), inhibition of fungal growth; details: read-out: Inhibition of bacterial growth: Candida albicans; for inhibition at 100 µM: c = 100 μM
# Experimental: (§1) Inhibition Test Culture media used: Müller-Hinton broth Caso agar plates Test method: Microdilution assay The test organisms are cultured overnight in […]-Honton broth at 35° C. +/-2° C. The suspension of organisms is centrifuged (5000 rev./min, 4° C.); the pellet is resuspended in fresh medium and incubated for a further 2 h. The pellet is then resuspended in 0.9% NaCl solution and the number of cells is adjusted to about 10^8 CFU/ml using standard curves. The resulting suspension is then diluted with Müller-Hinton broth to about 10^4 CFU/ml(=inoculum). Starting from the inoculum, a determination of the number of organisms is carried out by spiralling out (2×0.1 ml) a suitable dilution stage onto CASO agar plates. Test procedure: Specific concentrations of the potential inhibitors are dispensed into a 96-well microtitre assay plate, wells A1-H1remaining empty. The wells of the microtitre assay plates are inoculated with the adjusted suspension of organisms. Wells A1-H1serve as growth controls. Immediately after inoculation and after incubation of the plates for 24 h and 48 h, they are measured in a plate reader (Biotek EL 311) at 550 nm. From the crude data, the inhibition of bacterial and fungal growth is calculated in percent.
# [2] = system: Strept. pneumoniae; test: Inhibition test (microdilution assay), inhibition of bacterial growth; details: Streptococcus pneumoniae; c = 100 μM
# Experimental: as §1
# [3] = system: Bac. subtilis; test: as above; details: Bacillus subtilis; for inhibition at 100 µM: c = 100 μM
# Experimental: as §1
# [4] = system: Staph. aureus; test: as above; details: Staphylococcus aureus; for inhibition at 100 µM: c = 100 μM
# Experimental: as §1
# [5] = system: A549; test: Assay 1: cell growth by acid phosphatase activity; details: Homo sapiens; for GI50: A549, acid phosphatase, substance 0.1-100 μM, 48 h and 96 h, read-out: Cell proliferation GI50: A549; for inhibition at up to 100 µM: A549, printed beside GI50 >100 μM, concentration not given, read-out: Cell proliferation: A549, % inhibition
# Experimental: (§2) Assay 1 Measurement of cell growth by determination of the activity of the intracellular enzyme acid phosphatase. The added substrate p-nitrophenyl phosphate is converted by acid phosphatase into p-nitrophenol, which absorbs light at 405 nm, the intensity of the yellow coloration being proportional to the number of cells. Incubation of the cell lines HEPG-2 and A549 together with the substance (0.1-100 μM) was carried out for 48 h and 96 h at 37° C. and 5% CO2.
# [6] = system: HepG2; test: Assay 1: cell growth by acid phosphatase activity; details: Homo sapiens; for GI50: HepG2, acid phosphatase, substance 0.1-100 μM, 48 h and 96 h, read-out: Cell proliferation GI50: HepG2; for inhibition at up to 100 µM: HepG2, printed beside GI50 >100 μM, concentration not given, read-out: Cell proliferation: HepG2, % inhibition
# Experimental: as §2
SMILES,GI50 [5],GI50 [6],inhibition at 100 µM [1],inhibition at 100 µM [2],inhibition at 100 µM [3],inhibition at 100 µM [4],inhibition at up to 100 µM [5],inhibition at up to 100 µM [6],inhibition at 50 µM ([1]; c = 50 μM),inhibition at 50 µM ([3]; c = 50 μM),inhibition at 50 µM ([4]; c = 50 μM),inhibition at 25 µM ([3]; c = 25 μM),inhibition at 12.5 µM ([4]; c = 12.5 μM),inhibition at 200 µM ([1]; c = 200 μM)
c1ccc(COc2cc3c(-c4cncn4C4CCCc5ccccc54)c[nH]c3cn2)cc1 (stereo not shown) [Example 1],> 100 µM,,0%,100%,100%,100%,22%,,,,,,,
Cc1[nH]c2ccccc2c1-c1cncn1C1CCN(Cc2ccccc2)CC1 [Example 2],> 100 µM,> 100 µM,60%,90%,100%,100%,12%,1%,,,,,,
c1ccc(CN2CCC(n3cncc3-c3c[nH]c4ccccc34)CC2)cc1 [Example 3],> 100 µM,> 100 µM,60%,80%,100%,100%,26%,48%,,,,,,
c1ccc(COc2cc3c(-c4cncn4C4CCN(Cc5ccccc5)CC4)c[nH]c3cn2)cc1 [Example 4],> 100 µM,> 100 µM,70%,90%,100%,100%,41%,65%,,,,,,
Fc1ccc(-c2ncn(C3CCCc4ccccc43)c2-c2c[nH]c3cnc(OCc4ccccc4)cc23)cc1 (stereo not shown) [Example 11],,,,,,,,,100%,80%,60%,,,
c1ccc(COc2cc3c(-c4cncn4C4CCc5ccccc54)c[nH]c3cn2)cc1 (stereo not shown) [Example 12],,,60%,,,,,,,,,100%,80%,
O[C@@H]1Cc2ccccc2C1n1cncc1-c1c[nH]c2cnc(OCc3ccccc3)cc12 (stereo partly shown) [Example 13],,,,,90%,90%,,,,,,,,90%

# More lines, main results first:
GI50 [5],GI50 [6],SMILES,inhibition at 100 µM [1],inhibition at 100 µM [2],inhibition at 100 µM [3],inhibition at 100 µM [4],inhibition at up to 100 µM [5],inhibition at up to 100 µM [6],inhibition at 50 µM ([1]; c = 50 μM),inhibition at 50 µM ([3]; c = 50 μM),inhibition at 50 µM ([4]; c = 50 μM),inhibition at 25 µM ([3]; c = 25 μM),inhibition at 12.5 µM ([4]; c = 12.5 μM),inhibition at 200 µM ([1]; c = 200 μM)
> 100 µM,> 100 µM,CC(C)CCn1cncc1-c1c[nH]c2cnc(OCc3ccccc3)cc12 [Example 5],0%,90%,100%,100%,33%,38%,,,,,,
> 100 µM,> 100 µM,c1ccc(COc2cc3c(-c4cncn4CCc4c[nH]c5ccccc45)c[nH]c3cn2)cc1 [Example 6],0%,10%,10%,85%,19%,17%,,,,,,
> 100 µM,> 100 µM,Cc1[nH]c2ccccc2c1-c1cncn1C1CCCc2ccccc21 (stereo not shown) [Example 7],0%,0%,76%,40%,0%,0%,,,,,,
> 100 µM,> 100 µM,Cc1[nH]c2ccccc2c1-c1cncn1CCNC(C)C [Example 8],0%,0%,39%,82%,10%,0%,,,,,,
> 100 µM,> 100 µM,COc1ccc2[nH]cc(-c3cncn3CCc3ccc(O)cc3)c2c1 [Example 9],0%,85%,38%,25%,31%,14%,,,,,,
